In ChEMBL document CHEMBL3885881, “DrugMatrix”:

Organism: Rattus norvegicus
Assay: DrugMatrix - Regimen: Daily Repeat
Type: toxicity, organism-based, Sprague-Dawley
Parameters: regimen Daily Repeat, gender Male, age 6-8 weeks
Settings: in vivo, po, route oral GAVAGE, vehicle 100 % WATER; for ABSOLUTE BASOPHIL / ABSOLUTE EOSINOPHIL / ABSOLUTE LYMPHOCYTE / ABSOLUTE MONOCYTE / ABSOLUTE SEGMENTED NEUTROPHIL / BASOPHIL / EOSINOPHIL / ERYTHROCYTE COUNT / HEMATOCRIT / HEMOGLOBIN / LEUKOCYTE COUNT / LYMPHOCYTE / MEAN CORPUSCULAR HEMOGLOBIN / MEAN CORPUSCULAR HEMOGLOBIN CONCENTRATION / MEAN CORPUSCULAR VOLUME / MONOCYTE / NEUTROPHIL / NUCLEATED RED BLOOD CELLS / PLATELET COUNT: tissue Blood; for ALANINE AMINOTRANSFERASE / ALBUMIN / ALKALINE PHOSPHATASE / ASPARTATE AMINOTRANSFERASE / BLOOD UREA NITROGEN / CARBON DIOXIDE / CHLORIDE / CHOLESTEROL / CREATINE PHOSPHOKINASE / CREATININE / GLUCOSE / LACTATE DEHYDROGENASE / LIPASE / PHOSPHORUS / POTASSIUM / SODIUM / TOTAL BILIRUBIN / TOTAL PROTEIN / URIC ACID: tissue Plasma
[1] = 0 mg/kg, 72 h, dose level Control, time 3 day
[2] = 0 mg/kg, 120 h, dose level Control, time 5 day
[3] = 175 mg/kg, 72 h, dose level High, time 3 day

O=c1[nH]c(=O)n(C2CCCO2)cc1F (centres undefined) [TEGAFUR]
ABSOLUTE BASOPHIL [1]: 0 CELLS/uL | ABSOLUTE EOSINOPHIL [1]: 168.33 CELLS/uL | ABSOLUTE LYMPHOCYTE [1]: 13654.17 CELLS/uL | ABSOLUTE MONOCYTE [1]: 121 CELLS/uL | ABSOLUTE SEGMENTED NEUTROPHIL [1]: 1223.17 CELLS/uL | BASOPHIL [1]: 0% | EOSINOPHIL [1]: 1.17% | ERYTHROCYTE COUNT [1]: 5.7 x10E6/uL | HEMATOCRIT [1]: 35.33% | HEMOGLOBIN [1]: 13.97 G/DL | LEUKOCYTE COUNT [1]: 15.17 x10E3/uL | LYMPHOCYTE [1]: 89.83% | MEAN CORPUSCULAR HEMOGLOBIN [1]: 24.53 pg | MEAN CORPUSCULAR HEMOGLOBIN CONCENTRATION [1]: 39.53 G/DL | MEAN CORPUSCULAR VOLUME [1]: 62.05 fL | MONOCYTE [1]: 0.83% | NEUTROPHIL [1]: 8.17% | NUCLEATED RED BLOOD CELLS [1]: 0 /100WBC | PLATELET COUNT [1]: 1312.17 x10E3/uL | ALANINE AMINOTRANSFERASE [1]: 50.83 u/L | ALBUMIN [1]: 4.18 G/DL | ALKALINE PHOSPHATASE [1]: 334.17 u/L | ASPARTATE AMINOTRANSFERASE [1]: 82.17 u/L | BLOOD UREA NITROGEN [1]: 15.5 mg/dL | CARBON DIOXIDE [1]: 31.33 mmol/L | CHLORIDE [1]: 99.83 MEQ/L | CHOLESTEROL [1]: 76 mg/dL | CREATINE PHOSPHOKINASE [1]: 272.17 u/L | CREATININE [1]: 0.17 mg/dL | GLUCOSE [1]: 143 mg/dL | LACTATE DEHYDROGENASE [1]: 157.5 u/L | LIPASE [1]: 9.33 u/L | PHOSPHORUS [1]: 12.18 mg/dL | POTASSIUM [1]: 6.78 MEQ/L | SODIUM [1]: 143.9 MEQ/L | TOTAL BILIRUBIN [1]: 0.22 mg/dL | TOTAL PROTEIN [1]: 5.85 G/DL | URIC ACID [1]: 1.7 mg/dL | ABSOLUTE BASOPHIL [2]: 0 CELLS/uL | ABSOLUTE EOSINOPHIL [2]: 0 CELLS/uL | ABSOLUTE LYMPHOCYTE [2]: 13539.33 CELLS/uL | ABSOLUTE MONOCYTE [2]: 177.67 CELLS/uL | ABSOLUTE SEGMENTED NEUTROPHIL [2]: 2116.33 CELLS/uL | BASOPHIL [2]: 0% | EOSINOPHIL [2]: 0% | ERYTHROCYTE COUNT [2]: 5.78 x10E6/uL | HEMATOCRIT [2]: 36.13% | HEMOGLOBIN [2]: 14.1 G/DL | LEUKOCYTE COUNT [2]: 15.83 x10E3/uL | LYMPHOCYTE [2]: 85.83% | MEAN CORPUSCULAR HEMOGLOBIN [2]: 24.42 pg | MEAN CORPUSCULAR HEMOGLOBIN CONCENTRATION [2]: 39 G/DL | MEAN CORPUSCULAR VOLUME [2]: 62.55 fL | MONOCYTE [2]: 0.83% | NEUTROPHIL [2]: 13.33% | NUCLEATED RED BLOOD CELLS [2]: 0.17 /100WBC | PLATELET COUNT [2]: 1281.17 x10E3/uL | ALANINE AMINOTRANSFERASE [2]: 55.5 u/L | ALBUMIN [2]: 4.22 G/DL | ALKALINE PHOSPHATASE [2]: 345 u/L | ASPARTATE AMINOTRANSFERASE [2]: 92.5 u/L | BLOOD UREA NITROGEN [2]: 16.5 mg/dL | CARBON DIOXIDE [2]: 26.5 mmol/L | CHLORIDE [2]: 103.5 MEQ/L | CHOLESTEROL [2]: 78.5 mg/dL | CREATINE PHOSPHOKINASE [2]: 381.5 u/L | CREATININE [2]: 0.21 mg/dL | GLUCOSE [2]: 161.83 mg/dL | LACTATE DEHYDROGENASE [2]: 487.5 u/L | LIPASE [2]: 10.17 u/L | PHOSPHORUS [2]: 11.83 mg/dL | POTASSIUM [2]: 6.4 MEQ/L | SODIUM [2]: 146.95 MEQ/L | TOTAL BILIRUBIN [2]: 0.22 mg/dL | TOTAL PROTEIN [2]: 6.22 G/DL | URIC ACID [2]: 1.83 mg/dL | ABSOLUTE BASOPHIL [3]: 0 CELLS/uL | ABSOLUTE EOSINOPHIL [3]: 0 CELLS/uL | ABSOLUTE LYMPHOCYTE [3]: 11530.33 CELLS/uL | ABSOLUTE MONOCYTE [3]: 235 CELLS/uL | ABSOLUTE SEGMENTED NEUTROPHIL [3]: 434.67 CELLS/uL | BASOPHIL [3]: 0% | EOSINOPHIL [3]: 0% | ERYTHROCYTE COUNT [3]: 5.62 x10E6/uL | HEMATOCRIT [3]: 35% | HEMOGLOBIN [3]: 13.93 G/DL | LEUKOCYTE COUNT [3]: 12.2 x10E3/uL | LYMPHOCYTE [3]: 94.33% | MEAN CORPUSCULAR HEMOGLOBIN [3]: 24.87 pg | MEAN CORPUSCULAR HEMOGLOBIN CONCENTRATION [3]: 39.83 G/DL | MEAN CORPUSCULAR VOLUME [3]: 62.43 fL | MONOCYTE [3]: 2% | NEUTROPHIL [3]: 3.67% | NUCLEATED RED BLOOD CELLS [3]: 0 /100WBC | PLATELET COUNT [3]: 1245 x10E3/uL | ALANINE AMINOTRANSFERASE [3]: 377 u/L | ALBUMIN [3]: 4.23 G/DL | ALKALINE PHOSPHATASE [3]: 316.67 u/L | ASPARTATE AMINOTRANSFERASE [3]: 623.67 u/L | BLOOD UREA NITROGEN [3]: 18 mg/dL | CARBON DIOXIDE [3]: 25.33 mmol/L | CHLORIDE [3]: 98 MEQ/L | CHOLESTEROL [3]: 59.33 mg/dL | CREATINE PHOSPHOKINASE [3]: 3619.67 u/L | CREATININE [3]: 0.24 mg/dL | GLUCOSE [3]: 187.67 mg/dL | LACTATE DEHYDROGENASE [3]: 3501.33 u/L | LIPASE [3]: 13.33 u/L | PHOSPHORUS [3]: 13.57 mg/dL | POTASSIUM [3]: 9.03 MEQ/L | SODIUM [3]: 141.23 MEQ/L | TOTAL BILIRUBIN [3]: 0.23 mg/dL | TOTAL PROTEIN [3]: 5.9 G/DL | URIC ACID [3]: 2.9 mg/dL
